Drawing on US11377429B2, “Benzothia(di)azepine compounds and their use as bile acid modulators” (Albireo AB, priority 2020, dated 2022), this text covers IC50 for 16 compounds.

Test [1] has as its target T1, Human LBAT (Homo sapiens, UniProt Q14973).
T1 construct: expressed in transfected cells; cultured under Geneticin selection
T1 sequence (Q14973 1-349): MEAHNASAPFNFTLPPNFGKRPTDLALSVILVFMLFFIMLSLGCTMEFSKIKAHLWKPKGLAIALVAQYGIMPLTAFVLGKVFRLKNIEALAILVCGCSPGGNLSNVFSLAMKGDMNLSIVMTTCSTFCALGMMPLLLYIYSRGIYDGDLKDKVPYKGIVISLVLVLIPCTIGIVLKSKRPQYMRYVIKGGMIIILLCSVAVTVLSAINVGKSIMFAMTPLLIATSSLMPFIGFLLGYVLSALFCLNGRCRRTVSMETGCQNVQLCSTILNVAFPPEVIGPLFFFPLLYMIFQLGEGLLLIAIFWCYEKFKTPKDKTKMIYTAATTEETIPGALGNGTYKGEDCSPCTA
Put plainly: LBAT (h/m) assay, human LBAT-overexpressing cells, 3H-taurocholic acid uptake. The conditions noted are these: read-out: hLBAT IC50. Format: cell-based. The method, then:
LBAT (h/m) Assay Protocol
20,000 cells (Human or Mouse LBAT-overexpressing cells) were seeded in 96-wells plate (Corning CLS3809) in 100 μL MEM-alpha medium (Gibco 12571-063) supplemented with 10% FBS (Gibco 10438026) containing Geneticin (Gibco 10131-027) (1 mg/mL) and incubated at 37° C. in 5% CO2 for 24 hours. After incubation, media was decanted from the wells and cells were washed two times with 300 μL of basal MEM-alpha medium (FBS-free). After decanting basal MEM-alpha medium each time, plates were tapped against paper towel to ensure maximum removal of residual media. For human LBAT, incubation mix was prepared by adding test inhibitor dilutions (3-fold serial dilution in DMSO (Sigma D2650), 10 points) in MEM-alpha (without FBS) containing 0.3 μM 3H-taurocholic acid (ARC ART-1368) and 7.5 μM cold taurocholic acid (Sigma T4009) (maintaining 0.2% final DMSO concentration). For mouse LBAT, incubation mix was prepared by adding test inhibitor dilutions (3-fold serial dilution in DMSO, 10 points) in MEM-alpha (without FBS) containing 0.3 μM 3H-taurocholic acid and 25 μM cold taurocholic acid maintaining 0.2% final DMSO concentration). 50 μL of incubation mix containing test inhibitors was then added to the wells (in duplicate) and the plates were incubated for 20 minutes in a CO2 incubator at 37° C. After incubation, the reaction was stopped by keeping the plates on ice water mix for 2-3 minutes and then the incubation mix was aspirated completely from the wells. The wells were washed two times with 250 μL of chilled unlabeled 1 mM taurocholic acid dissolved in HEPES (Gibco 15630080)-buffered (10 mM) HBSS (Gibco 14175079) (pH 7.4). The plates were tapped against a paper towel after every wash to ensure maximum removal of blocking buffer.
100 μL of MicroScint-20 (PerkinElmer 6013621) was added to the wells and kept overnight at room temperature before reading the plates in TopCount NXT™ Microplate Scintillation and Luminescence Counter from PerkinElmer under 3H Test protocol (set at 120 seconds reading time per well, with normal plate orientation).
(§1) Preparation of Test Compound Dilutions
(§2) All test compounds were provided in powder form at room temperature. 10 mM DMSO stocks of the test compounds were prepared, aliquoted and stored at −20° C. From the 10 mM DMSO stock of the compounds, a 3-fold serial dilution in DMSO was prepared to get a total of 10 dilutions of the test compounds. 0.5 μL of this dilution in DMSO was added to 250 μL of FBS-free basal media containing 3H-taurocholic acid and cold taurocholic acid to prepare the incubation mixture.

Test [2] deals with T2, Human IBAT (Homo sapiens, UniProt Q12908).
T2 construct: expressed in transfected cells; cultured under Puromycin selection
T2 sequence (Q12908 1-348): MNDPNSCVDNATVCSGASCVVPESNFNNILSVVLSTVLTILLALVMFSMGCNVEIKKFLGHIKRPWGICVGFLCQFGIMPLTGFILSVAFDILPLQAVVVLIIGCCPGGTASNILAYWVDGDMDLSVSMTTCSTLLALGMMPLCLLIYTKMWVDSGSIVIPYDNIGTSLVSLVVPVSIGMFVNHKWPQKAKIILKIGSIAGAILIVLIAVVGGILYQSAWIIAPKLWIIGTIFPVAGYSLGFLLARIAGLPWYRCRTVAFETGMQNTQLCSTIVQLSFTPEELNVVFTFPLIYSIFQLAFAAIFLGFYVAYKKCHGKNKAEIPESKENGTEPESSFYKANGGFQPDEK
Put plainly: IBAT (h/m) assay, human IBAT-overexpressing cells, 3H-taurocholic acid uptake. The conditions noted are these: read-out: hIBAT IC50. It counts as cell-based. The method, then:
IBAT (h/m) Assay Protocol
10,000 cells (Human or Mouse IBAT-overexpressing cells) were seeded in 96-wells plate (Corning CLS3809) in 200 μL MEM-alpha medium (Gibco 12571-063) supplemented with 10% FBS (Gibco 10438026) containing Puromycin (Gibco A1113803) (10 μg/mL) and incubated at 37° C. in 5% CO2 for 48 hours. After incubation, media was decanted from the wells and cells were washed two times with 300 μL of basal MEM-alpha medium (FBS-free). After decanting basal MEM-alpha medium each time, plates were tapped against paper towel to ensure maximum removal of residual media. Test inhibitor dilutions (highest test concentration being 10 μM, 3-fold serial dilution, 10 points) prepared in DMSO (Sigma D2650) were added in incubation mix (maintaining 0.2% final DMSO concentration) containing 0.25 μM 3H-taurocholic acid (ARC ART-1368) and 5 μM of cold taurocholic acid (Sigma T4009). 50 μL of incubation mix containing test inhibitors was then added to the wells (in duplicate) and the plates were incubated for 20 minutes in a CO2 incubator at 37° C. After incubation, the reaction was stopped by keeping the plates on ice water mix for 2-3 minutes and then the incubation mix was aspirated completely from the wells. The wells were washed two times with 250 μL of chilled unlabeled 1 mM taurocholic acid dissolved in HEPES (Gibco 15630080)-buffered (10 mM) HBSS (Gibco 14175079) (pH 7.4). The plates were tapped against a paper towel after every wash to ensure maximum removal of blocking buffer. 100 μL of MicroScint-20 (PerkinElmer 6013621) was added to the wells and kept overnight at room temperature before reading the plates in TopCount NXT™ Microplate Scintillation and Luminescence Counter from PerkinElmer under 3H Test protocol (set at 120 seconds reading time per well).
as §1, §2

Structures are written as SMILES. A value given as a limit tells only on which side of the number the result lay.

Usually IC50 stands for the point on the concentration scale where inhibition reaches its midpoint. For `CCCCC1(CC)CN(c2ccc(F)cc2)c2cc(SC)c(OCC3(C(=O)O)CC3)cc2S(=O)(=O)C1` (racemic) [Example 2, 1-(((3-butyl-3-ethyl-5-(4-fluorophenyl)-7-(methylthio)-1,1-dioxido-2,3,4,5-tetrahydro-1,5-benzothiazepin-8-yl)oxy)methyl)cyclopropane-1-carboxylic Acid], the IC50 in test [1] worked out at 320 nM; in test [2] it was 11 nM.

As for `CCCCC1(CC)CN(c2ccc(F)cc2)c2cc(SC)c(OCC(C)(C)C(=O)O)cc2S(=O)(=O)C1` (racemic) [Example 4, 3-((3-butyl-3-ethyl-5-(4-fluorophenyl)-7-(methylthio)-1,1-dioxido-2,3,4,5-tetrahydro-1,5-benzothiazepin-8-yl)oxy)-2,2-dimethylpropanoic Acid], the half-inhibitory concentration (IC50) in test [1] was 173 nM; in test [2], 37 nM.

`CCCCC1(C)CN(c2ccc(F)cc2)c2cc(SC)c(OCC(O)C(=O)O)cc2S(=O)(=O)C1` (single isomer, unassigned) [1, diastereomer 2]: the results for the IC50 in test [1] and in test [2] were 2020 nM and 2 nM, respectively.

For `CCCCC1(C)CN(c2ccc(F)cc2)c2cc(SC)c(OCC(O)C(=O)O)cc2S(=O)(=O)C1` (single isomer, unassigned) [1, diastereomer 3], the IC50 in test [1] was determined as 921 nM; in test [2], 61 nM.

`CCCCC1(C)CN(c2ccc(F)cc2)c2cc(SC)c(OCC(O)C(=O)O)cc2S(=O)(=O)C1` (single isomer, unassigned) [1, diastereomer 4]: the IC50 in test [1] amounted to 1050 nM; in test [2] it was 122 nM.

With `CCCCC1(CC)CN(c2ccc(F)cc2)c2cc(SC)c(OCC3(C(=O)O)CC3)cc2S(=O)(=O)C1` (single isomer, unassigned) [3, enantiomer 2], the IC50 in test [1] was determined as 1080 nM; in test [2], 258 nM.

Consider `CCCCC1(CC)CN(c2ccc(F)cc2)c2cc(SC)c(OCC(C)(C)C(=O)O)cc2S(=O)(=O)C1` (single isomer, unassigned) [5, enantiomer 2], for which the IC50 in test [1] was 119 nM; in test [2] it was 770 nM.

With `CCCCC1(CCCC)CN(c2ccc(F)cc2)c2cc(SC)c(OCC(OC)C(=O)O)cc2S(=O)(=O)C1` (single isomer, unassigned) [10, enantiomer 1], the IC50 in test [1] is > 6670 nM; in test [2] it was 40 nM.

Regarding `CCCCC1(CCCC)CN(c2ccc(F)cc2)c2cc(SC)c(OCC(OC)C(=O)O)cc2S(=O)(=O)C1` (single isomer, unassigned) [10, enantiomer 2], the half-maximal inhibitory concentration (IC50) in test [1] was > 2220 nM; in test [2], 4 nM.

`CCC1(CC)CN(c2ccccc2)c2cc(SC)c(OCC(C)(F)C(=O)O)cc2S(=O)(=O)C1` (stereo not shown) [Example 6, 3-((3,3-diethyl-7-(methylthio)-1,1-dioxido-5-phenyl-2,3,4,5-tetrahydro-1,5-benzothiazepin-8-yl)oxy)-2-fluoro-2-methylpropanoic Acid]: the figures for the IC50 in test [1] and in test [2] were 83 nM and 338 nM, respectively.

With `CCCCC1(CC)CN(c2ccc(F)cc2)c2cc(SC)c(OCC(OC)C(=O)O)cc2S(=O)(=O)C1` (stereo not shown) [Example 8, 3-((3-butyl-3-ethyl-5-(4-fluorophenyl)-7-(methylthio)-1,1-dioxido-2,3,4,5-tetrahydro-1,5-benzothiazepin-8-yl)oxy)-2-methoxypropanoic Acid], the IC50 in test [1] turned out to be 2990 nM; in test [2], 4 nM.

Regarding `CCCCC1(CCCC)CN(c2ccc(F)cc2)c2cc(SC)c(OCC(OC)C(=O)O)cc2S(=O)(=O)C1` (stereo not shown) [Example 9, 3-((3,3-dibutyl-5-(4-fluorophenyl)-7-(methylthio)-1,1-dioxido-2,3,4,5-tetrahydro-1,5-benzothiazepin-8-yl)oxy)-2-methoxypropanoic Acid], the figures for the IC50 in test [1] and in test [2] were 5410 nM and 10 nM, respectively.

Regarding `CCCCC1(CC)CN(c2ccc(F)cc2)c2cc(SC)c(OCC(OCC)C(=O)O)cc2S(=O)(=O)C1` (stereo not shown) [Example 11, 3-((3-butyl-3-ethyl-5-(4-fluorophenyl)-7-(methylthio)-1,1-dioxido-2,3,4,5-tetrahydro-1,5-benzothiazepin-8-yl)oxy)-2-ethoxypropanoic Acid], the half-maximal inhibitory concentration (IC50) in test [2] is 10 nM.

`CCCCC1(CCCC)CN(c2ccccc2)c2cc(SC)c(OCC(OCC)C(=O)O)cc2S(=O)(=O)C1` (stereo not shown) [Example 12, 3-((3,3-dibutyl-7-(methylthio)-1,1-dioxido-5-phenyl-2,3,4,5-tetrahydro-1,5-benzothiazepin-8-yl)oxy)-2-ethoxypropanoic Acid]: the IC50 in test [1] stood at 1250 nM; in test [2] it was 3 nM.

Regarding `CCC1(CC)CN(c2ccc(F)cc2)c2cc(SC)c(OCC(C)(C)C(=O)O)cc2S(=O)(=O)C1` [Example 13, 3-((3,3-diethyl-5-(4-fluorophenyl)-7-(methylthio)-1,1-dioxido-2,3,4,5-tetrahydro-1,5-benzothiazepin-8-yl)oxy)-2,2-dimethylpropanoic Acid], the IC50 is 21 nM in test [1] and 256 nM in test [2].

In the case of `CCCC1(CCC)CN(c2ccccc2)c2cc(SC)c(OCC(O)C(=O)O)cc2S(=O)(=O)C1` (stereo not shown) [Example 14, 2-Hydroxy-3-((7-(methylthio)-1,1-dioxido-5-phenyl-3,3-dipropyl-2,3,4,5-tetrahydro-1,5-benzothiazepin-8-yl)oxy)propanoic Acid], the figures for the IC50 in test [1] and in test [2] were 3680 nM and 30 nM, respectively.
